Test results: ChEMBL document CHEMBL3399924, “Indirubin 3'-(O-oxiran-2-ylmethyl)oxime: a novel anticancer agent” (Bioorg Med Chem Lett, 2015)
The source made the active and inactive calls. No cut-off for these calls is given here.

How the values were obtained:
HepG2 [1] = test: Antiproliferative activity against human HepG2 cells assessed cell survival after 24 hrs by alamarBlue assay; assay type: functional, cell-based
HepG2 [2] = test: Cytotoxicity against human HepG2 cells assessed cell death after 72 hrs at 2 uM by alamarBlue assay relative to control; assay type: functional; conditions: HepG2, 72 h
HepG2 [3] = test: Cytotoxicity against human HepG2 cells assessed cell death after 72 hrs at 3 uM by alamarBlue assay relative to control; assay type: functional; conditions: HepG2, 72 h
HepG2 [4] = test: Cytotoxicity against human HepG2 cells assessed cell death after 72 hrs by alamarBlue assay relative to control; assay type: functional, cell-based; conditions: HepG2, 72 h
HepG2 [5] = test: Drug formation in human HepG2 cells treated at 1 uM Epox/Ind by mass spectrometry; assay type: ADME, cell-based; conditions: hepg2, 1 µM
[6] = Retention time of the compound by HPLC chromatogram; assay type: physicochemical
HepG2 [7] = test: Cytotoxicity against human HepG2 cells assessed cell survival after 24 hrs at 10 uM by alamarBlue assay; assay type: functional, cell-based
HepG2 [8] = test: Cytotoxicity against human HepG2 cells assessed cell death after 24 hrs at 1 uM by alamarBlue assay relative to control; assay type: functional; conditions: HepG2, 24 h
HepG2 [9] = test: Drug metabolisam in human HepG2 cells assessed as indirubin 3'-(O-2,3-dihydroxypropyl)oxime formation at 1 uM by mass spectrometry; assay type: ADME, cell-based; conditions: hepg2, 1 µM
HepG2 [10] = test: Cytotoxicity against human HepG2 cells assessed cell survival rate after 24 hrs at 2 uM by alamarBlue assay relative to control; assay type: functional
HepG2 [11] = test: Cytotoxicity against human HepG2 cells assessed cell survival rate after 72 hrs at 2 uM by alamarBlue assay relative to control; assay type: functional
[12] = Homo sapiens, HepG2, 24 h, read-out: IC50

| Retention_time [6] | Compound | IC50 (HepG2 [1]; [12]) | inhibition at 2 µM (HepG2 [2]) | inhibition at 3 µM (HepG2 [3]) | IC50 (HepG2 [4]) | other results |
| --- | --- | --- | --- | --- | --- | --- |
| 3.392 min | O=C1Nc2ccccc2/C1=C1/Nc2ccccc2/C1=N\OCC(O)CO (stereo not drawn) | 2.1 µM | 15% | 58% | 2.8 µM | Drug metabolism (HepG2 [5]): metabolite_detected |
| – | O=C1Nc2ccccc2/C1=N\OCC1CO1 (stereo not drawn) | – | – | – | – | Activity (HepG2 [7]): inactive |
| – | O=C1Nc2ccccc2/C1=C1/Nc2ccccc2C1=O [INDIRUBIN] | – | – | – | – | IC50 (HepG2 [1]; hepg2): Not Active |
| 4.3 min | O=C1Nc2ccccc2/C1=C1/Nc2ccccc2/C1=N\OCC1CO1 (stereo not drawn) | 1.7 µM | 31% | 89% | 2.3 µM | inhibition at 1 µM (HepG2 [8]): 25%; Drug metabolism (HepG2 [9]): metabolite_detected; Activity (HepG2 [10]): 69%; Activity (HepG2 [11]): 44% |
| – | O=C1Nc2ccccc2/C1=C1/Nc2ccccc2/C1=N\O | 15 µM | – | – | – | – |
